Test results from EP1214299B1, “MUSCARINIC ANTAGONISTS” (SCHERING CORPORATION, priority 1999, dated 2001).
Read-outs that look alike come from different tables or passages of the source.

Columns and labels:
Acetylcholine (ACh) = experiment: Microdialysis (ACh in striatal microdialysate); type: in vivo, male Sprague-Dawley Rats; conditions: dose of 10 mg/kg PO; ACh in rat striatum microdialysate
Procedure: The skull was exposed and drilled through to the dura at a point 0.2 mm anterior and 3.0 mm lateral to the bregma. At these coordinates, a guide cannula was positioned at the outer edge of the dura through the drilled opening, lowered perpendicularly to a depth of 2.5 mm, and permanent!y secured with dental cement to bone screws. Following the surgery, rats were given ampicillin (40 mg/kg, ip) and individually housed in modified cages. A recovery period of approximately 3 to 7 days was allowed before the microdialysis procedure was undertaken. • Microdialysis: All of the equipment and instrumentation used to conduct in vivo microdialysis was obtained from Bioanalytical Systems, Inc. (BAS). The microdialysis procedure involved the insertion through the guide cannula of a thin, needle-like perfusable probe (CMA/12,3 mm x 0.5 mm) to a depth of 3 mm in striatum beyond the end of the guide. The probe was connected beforehand with tubing to a microinjection pump (CMA/ 100). Rats were collared, tethered, and, following probe insertion, were placed in a large, clear, plexiglass bowl with litter material and access to food and water. The probe was perfused at 2 µl/min with Ringer's buffer (NaCl 147 mM; KCl 3.0 mM; CaCl2 1.2 mM; MgCl2 1.0 mM) containing 5.5 mM glucose, 0.2 mM L-ascorbate, and 1 µM neostigmine bromide at pH 7.4). To achieve stable baseline readings, microdialysis was allowed to proceed for 90 minutes prior to the collection of fractions. Fractions (20 µl) were obtained at 10 minute intervals over a 3 hour period using a refrigerated collector (CMA/170 or 200). Four to five baseline fractions were collected, following which the drug or combination of drugs to be tested was administered to the animal. Upon completion of the collection, each rat was autopsied to determine accuracy of probe placement. • Acetylcholine (ACh) analysis: The concentration of ACh in collected samples of microdialysate was determined using HPLC/electrochemical detection. Samples were auto-injected (Waters 712 Refrigerated Sample Processor) onto a polymeric analytical HPLC column (BAS, MF-6150) and eluted with 50 mM Na2HPO4, pH 8.5. To prevent bacterial growth, Kathon CG reagent (0.005%) (BAS) was included in the mobile phase. Eluent from the analytical column, containing separated ACh and choline, was then immediately passed through an immobilized enzyme reactor cartridge (BAS, MF-6151) coupled to the column outlet. The reactor contained both acetylcholinesterase and choline oxidase covalently bound to a polymeric backbone. […] Data acquisition was carried out using an IBM Model 70 computer equipped with a microchannel IEEE board. Integration and quantification of peaks were accomplished using "Maxima" chromatography software (Waters Corporation). Total run time per sample was 11 minutes at a flow rate of 1 ml/min. Retention times for acetylcholine and choline were 6.5 and 7.8 minutes, respectively. To monitor and correct for possible changes in detector sensitivity during chromatography, ACh standards were included at the beginning, middle and end of each sample queue.
Increases in ACh levels are consistent with presynaptic m2 receptor antagonism.
Data for representative and/or preferred compounds of the present invention are as follows (compounds were administered at a dose of 10 mg/kg PO): […]

[1] = biological target: human m1 muscarinic receptor (Homo sapiens, UniProt P11229); experiment: biochemical; type: binding
[2] = biological target: human m4 muscarinic receptor (Homo sapiens, UniProt P08173); experiment: biochemical; type: binding
[3] = biological target: human m3 muscarinic receptor (Homo sapiens, UniProt P20309); conditions: read-out: m3 Ki; membranes from stably transfected CHO cell lines, 3H-QNB
m5 = biological target: T1, m5 (Homo sapiens, UniProt P08912); conditions: read-out: m5 Ki
T1 sequence (P08912 1-532): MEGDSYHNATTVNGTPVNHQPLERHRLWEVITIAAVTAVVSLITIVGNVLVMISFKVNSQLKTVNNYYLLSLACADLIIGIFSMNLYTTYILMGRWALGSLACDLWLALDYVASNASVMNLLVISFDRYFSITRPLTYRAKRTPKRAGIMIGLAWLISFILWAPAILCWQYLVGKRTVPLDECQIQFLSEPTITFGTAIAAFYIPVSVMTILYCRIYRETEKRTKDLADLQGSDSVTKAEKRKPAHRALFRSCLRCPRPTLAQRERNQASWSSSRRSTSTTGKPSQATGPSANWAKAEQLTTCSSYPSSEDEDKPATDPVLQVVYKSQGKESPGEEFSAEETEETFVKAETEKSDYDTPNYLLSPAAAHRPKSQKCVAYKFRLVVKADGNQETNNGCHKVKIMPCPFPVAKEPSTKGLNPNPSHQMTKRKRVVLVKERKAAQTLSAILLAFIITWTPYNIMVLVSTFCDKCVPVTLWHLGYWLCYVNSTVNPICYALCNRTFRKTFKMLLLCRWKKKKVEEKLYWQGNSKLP

human m1 muscarinic receptor, sequence (P11229 whole entry): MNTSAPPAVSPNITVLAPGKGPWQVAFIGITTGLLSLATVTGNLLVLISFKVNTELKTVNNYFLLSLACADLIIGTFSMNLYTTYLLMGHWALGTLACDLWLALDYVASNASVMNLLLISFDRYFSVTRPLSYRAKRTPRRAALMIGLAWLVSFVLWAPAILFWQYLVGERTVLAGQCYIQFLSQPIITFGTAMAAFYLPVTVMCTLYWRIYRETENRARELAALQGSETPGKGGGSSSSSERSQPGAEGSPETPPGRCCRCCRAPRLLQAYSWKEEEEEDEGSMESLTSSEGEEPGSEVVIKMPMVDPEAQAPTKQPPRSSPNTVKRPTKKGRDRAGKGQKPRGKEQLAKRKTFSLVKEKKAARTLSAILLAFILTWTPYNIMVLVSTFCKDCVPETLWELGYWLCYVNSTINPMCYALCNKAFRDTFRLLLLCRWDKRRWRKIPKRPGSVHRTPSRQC
human m4 muscarinic receptor, sequence (P08173 whole entry): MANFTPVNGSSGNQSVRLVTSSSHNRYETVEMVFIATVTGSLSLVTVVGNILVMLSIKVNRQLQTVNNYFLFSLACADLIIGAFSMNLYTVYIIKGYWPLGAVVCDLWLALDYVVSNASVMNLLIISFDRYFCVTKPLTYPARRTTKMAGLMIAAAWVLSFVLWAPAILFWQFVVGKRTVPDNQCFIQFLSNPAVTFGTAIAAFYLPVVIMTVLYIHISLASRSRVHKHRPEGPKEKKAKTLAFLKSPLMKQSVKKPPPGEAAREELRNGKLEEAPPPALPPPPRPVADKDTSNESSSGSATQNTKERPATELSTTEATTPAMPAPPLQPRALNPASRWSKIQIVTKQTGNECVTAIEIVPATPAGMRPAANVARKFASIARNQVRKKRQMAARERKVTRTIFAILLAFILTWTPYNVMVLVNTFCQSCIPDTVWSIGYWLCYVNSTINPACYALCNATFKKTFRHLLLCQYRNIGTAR
human m3 muscarinic receptor, sequence (P20309 whole entry): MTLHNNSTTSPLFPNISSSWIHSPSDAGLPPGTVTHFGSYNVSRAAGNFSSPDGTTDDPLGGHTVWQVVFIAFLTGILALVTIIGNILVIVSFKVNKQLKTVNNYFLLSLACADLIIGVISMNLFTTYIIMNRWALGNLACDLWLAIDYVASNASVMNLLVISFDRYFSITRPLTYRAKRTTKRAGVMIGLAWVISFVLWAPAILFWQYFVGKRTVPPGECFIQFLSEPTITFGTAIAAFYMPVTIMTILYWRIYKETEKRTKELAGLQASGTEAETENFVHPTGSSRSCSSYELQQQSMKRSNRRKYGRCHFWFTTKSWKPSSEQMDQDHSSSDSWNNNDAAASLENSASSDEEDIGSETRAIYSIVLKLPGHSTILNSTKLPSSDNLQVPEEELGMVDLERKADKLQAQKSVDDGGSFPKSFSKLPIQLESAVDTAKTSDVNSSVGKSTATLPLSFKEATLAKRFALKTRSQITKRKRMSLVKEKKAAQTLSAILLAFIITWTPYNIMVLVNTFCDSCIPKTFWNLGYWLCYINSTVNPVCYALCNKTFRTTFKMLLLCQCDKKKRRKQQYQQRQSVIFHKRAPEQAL

Nc1ccccc1C(=O)N1CCC(N2CCC(Cc3ccc(S(=O)(=O)c4cccc(Cl)c4)cc3)CC2)CC1 [Example 7A]
Microdialysis Maximum % of baseline (Acetylcholine (ACh)): 150 % of baseline | Ki [1]: 658 nM | Ki [2]: 33.3 nM

Nc1cc(F)ccc1C(=O)N1CCC(N2CCC(C3(c4ccc(S(=O)(=O)c5cccc(Cl)c5)cc4)OCCO3)CC2)CC1 [Example 3E]
Microdialysis Maximum % of baseline (Acetylcholine (ACh)): 188 % of baseline

Cc1cccc(C(=O)N2CCC(N3CCC(Cc4ccc(S(=O)(=O)c5cccc(Cl)c5)cc4)CC3)CC2)c1N [Example 7]
Ki [3]: 698 nM | Microdialysis Maximum % of baseline (Acetylcholine (ACh)): 180 % of baseline | Ki ([1]; membranes from stably transfected CHO cell lines, 3H-QNB, read-out: m1 Ki): 650 nM | Ki (m5): 84.5 nM | Ki ([2]; membranes from stably transfected CHO cell lines, 3H-QNB, read-out: m4 Ki): 61.4 nM

COc1ccc(S(=O)(=O)c2ccc(C3(C4CCN(C5CCN(C(=O)c6cccc(C)c6N)CC5)CC4)OCCO3)cc2)cc1 [Example 2]
Microdialysis Maximum % of baseline (Acetylcholine (ACh)): 194 % of baseline

COc1ccc(S(=O)(=O)c2ccc(C3(C4CCN(C5CCN(C(=O)c6cccc(F)c6N)CC5)CC4)OCCO3)cc2)cc1 [Example 2F]
Microdialysis Maximum % of baseline (Acetylcholine (ACh)): 186 % of baseline
